This note sets out measurements from paper PMC11091220, “Metabolism-driven in vitro/in vivo disconnect of an oral ERɑ VHL-PROTAC” (Communications Biology, 2024).

The target of the test is T1, ERα (Homo sapiens, UniProt P03372).
T1 construct: endogenous in cells; host or cells: MCF7 (also MCF7 engineered to express Cas9)
T1 sequence (P03372 1-595): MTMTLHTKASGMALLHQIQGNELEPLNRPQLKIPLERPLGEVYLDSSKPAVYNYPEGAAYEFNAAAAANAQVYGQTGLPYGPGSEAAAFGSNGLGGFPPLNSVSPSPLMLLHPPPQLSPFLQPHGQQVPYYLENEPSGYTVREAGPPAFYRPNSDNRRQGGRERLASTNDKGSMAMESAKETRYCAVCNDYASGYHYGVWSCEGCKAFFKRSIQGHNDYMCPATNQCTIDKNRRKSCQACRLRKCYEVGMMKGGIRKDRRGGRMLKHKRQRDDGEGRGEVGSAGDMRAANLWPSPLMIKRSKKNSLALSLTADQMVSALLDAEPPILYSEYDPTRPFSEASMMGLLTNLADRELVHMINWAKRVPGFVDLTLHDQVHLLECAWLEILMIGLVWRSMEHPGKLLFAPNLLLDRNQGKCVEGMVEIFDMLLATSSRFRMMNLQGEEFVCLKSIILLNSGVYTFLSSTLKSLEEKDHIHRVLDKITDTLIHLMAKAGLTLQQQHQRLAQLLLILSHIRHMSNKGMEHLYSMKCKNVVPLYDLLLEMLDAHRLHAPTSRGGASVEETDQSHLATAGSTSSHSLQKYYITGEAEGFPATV
The test can be described thus: ERα degradation in a panel of ER+ cell lines (western blot). The test is classed as cell-based. As to conditions: 100 nM; for ERa degradation vs vehicle: 48 h, listed as AZ'6421. The procedure:
Fig. 3 AZ’6421 potently degrades ERα and inhibits ER-regulated gene transcription. a MCF7 cells were treated with increasing concentrations of AZ’6421 for 24 h and probed for ERα by immunoblot analysis. b SILAC experiment to measure ERα peptide turnover in MCF7 cells. Cells cultured in the presence of heavy L-arginine were switched at time T = 0 to media containing light L-arginine plus 0.1% DMSO, 1 µM AZ’6421, or 1 µM fulvestrant. Cells were collected at the indicated timepoints and the proportion of heavy-labelled ERα assessed by mass spectrometry. % ERα heavy peptide is plotted relative to DMSO control. Data points show the mean of 3 independent experiments with points in bold representing the mean. c A panel of ER+ cells were treated with 100 nM AZ’6421 for 48 h. ERα was normalised to vinculin and expressed as % of vehicle control. Data points represent an independent experiment for each cell line, error bars indicate ± s.e.m. d Heatmap showing changes in mRNA expression of a panel of ER-regulated genes. MCF7 and CAMA1 cells were stimulated with 0.1 nM estradiol in the presence of DMSO, 100 nM fulvestrant (Fulv), 100 nM AZD9833, or 100 nM AZ’6421 for 24 hours. Data points show 3 independent experiments. e Growth inhibition curves for MCF7 and CAMA1 cells, treated with increasing concentrations of AZ’6421 for 6 days. Data points show 4–5 independent experiments, bold points represent the mean. TEXT PRINTED IN THE PICTURE: (c) no label printed: Mean % ER Degradation, MCF-7: 96; Mean % ER Degradation, CAMA-1: 92; Mean % ER Degradation, ZR75-1: 95; Mean % ER Degradation, MDA-MB-134: 99; Mean % ER Degradation, BT474: 83; Mean % ER Degradation, HCC1428: 92; Mean % ER Degradation, T47D: 87 DOUBTS OF THE COPYIST ABOUT THIS PICTURE: Panel c prints no substance label for the Mean % ER Degradation values, so the substance is left empty.
Cells were seeded into 12-well tissue culture-treated plates at 0.5 x 10^6 cells/well in phenol red-free RPMI containing 5% (v/v) charcoal-stripped FBS (F6765, Sigma) and left to adhere overnight. In experiments to detect agonism or for SILAC experiments, FBS was double stripped using activated charcoal. […] Expression levels of proteins were determined by standard western blotting techniques (BioRad 4%-12% Bis-Tris gels). Antibodies were diluted in 5% milk-PBS-Tween and protein levels were detected using Pierce WestDura chemiluminescent reagents followed by visualisation and quantification on a Syngene ChemiGenius Imager. Where blots were quantified, protein levels were normalised to beta-actin or vinculin control and expressed as % of vehicle control.
(In general: In western blotting, separated proteins are transferred to a membrane and probed.)

Several values for one entry are separate records, joined by “and”; a condition that tells them apart may be missing. Equal entries are not always repeated.

For the compound `Cc1ncsc1-c1ccc(CNC(=O)[C@@H]2C[C@@H](O)CN2C(=O)[C@@H](NC(=O)COCCCOCCCOc2cc(F)c([C@@H]3c4[nH]c5ccccc5c4C[C@@H](C)N3CC(C)(C)F)c(F)c2)C(C)(C)C)cc1` [Compound 5], the “ERα protein abundance, % of the vehicle” value (all cell lines tested) is given as “less than 20%”. Besides, the “ERa degradation vs vehicle” value is 4.37 and 5.82 (BT474); 9.04 and 6.44 (HCC1428); 1.1 and 1.64 (MDA-MB-134).
